Read-outs that look alike come from different tables or passages of the source. Each block holds one compound with its values, some of them ahead of it.
Key:
clinical [1] = conditions: human, in vivo
Description: (§1) All other markers were obtained from commercial sources. Urine and saliva were collected prior to each day's dosing of marker confirming the presence or absence of markers before the experiment started. […] The presence of all 7 markers at day 8 would confirm that all markers were ingested in the previous 7 day one week period.
(§2) Healthy volunteers with no recent exposure to the markers who were not currently taking prescribed medications, OTC medications or vitamins and supplements were chosen. Exposure to the markers more than one month before starting the experiment was allowed and no dietary restrictions were required. Subjects were given a 7 day blister pack with markers sequenced in the order above. Subjects verbally confirmed they understood the urine and saliva collection procedures. Instructions printed on the marker blister pack instructed subjects to collect urine and saliva each morning before they took the daily dose of marker. They were also instructed to take the daily dose of marker close to the same time each day.

clinical [2] = conditions: in vivo; for Subject C, Urine Results / Subject D, Urine Results / concentration at 1 day / concentration at 2 day / concentration at 3 day / concentration at 4 day / concentration at 5 day / concentration at 6 day / concentration at 7 day / concentration at 8 day: human
Description: as §1, §2

[3] = human, in vivo
clinical [4] = conditions: human, in vivo, Urine Results

concentration at 1 day (clinical [1]): 30.7 ng/mL
concentration at 2 day (clinical [1]): 33.6 ng/mL
concentration at 3 day (clinical [1]): 32.8 ng/mL
concentration at 4 day (clinical [1]): 33.3 ng/mL
concentration at 5 day (clinical [1]): 23.8 ng/mL
concentration at 6 day (clinical [1]): 36.2 ng/mL
concentration at 7 day (clinical [1]): 36.8 ng/mL
concentration at 8 day (clinical [1]): 27 ng/mL
Subject C, Urine Results (clinical [2]; 1 day): 1290 ng/m
Subject D, Urine Results (clinical [2]; 1 day): 4167 ng/m
Subject C, Urine Results (clinical [2]; 2 day): 2106 ng/m
Subject D, Urine Results (clinical [2]; 2 day): 2789 ng/m
Subject C, Urine Results (clinical [2]; 3 day): 1947 ng/m
Subject D, Urine Results (clinical [2]; 3 day): 3626 ng/m
Subject C, Urine Results (clinical [2]; 4 day): 1892 ng/m
Subject D, Urine Results (clinical [2]; 4 day): 3426 ng/m
Subject C, Urine Results (clinical [2]; 5 day): 2503 ng/m
Subject D, Urine Results (clinical [2]; 5 day): 2268 ng/m
Subject C, Urine Results (clinical [2]; 6 day): 1812 ng/m
Subject D, Urine Results (clinical [2]; 6 day): 3024 ng/m
Subject C, Urine Results (clinical [2]; 7 day): 1751 ng/m
Subject D, Urine Results (clinical [2]; 7 day): 3908 ng/m
Subject C, Urine Results (clinical [2]; 8 day): 2020 ng/m
Subject D, Urine Results (clinical [2]; 8 day): 2894 ng/m
concentration at 1 day (clinical [2]; Average of Urine Samples): 1960 ng/mL
concentration at 2 day (clinical [2]; Average of Urine Samples): 2100 ng/mL
concentration at 3 day (clinical [2]; Average of Urine Samples): 2260 ng/mL
concentration at 4 day (clinical [2]; Average of Urine Samples): 2660 ng/mL
concentration at 5 day (clinical [2]; Average of Urine Samples): 2030 ng/mL
concentration at 6 day (clinical [2]; Average of Urine Samples): 1960 ng/mL
concentration at 7 day (clinical [2]; Average of Urine Samples): 2560 ng/mL
concentration at 8 day (clinical [2]; Average of Urine Samples): 2100 ng/mL
concentration at 7 day (clinical [2]; Subject A, Urine Results): 2800 ng/mL
concentration at 7 day (clinical [4]; Subject A): 2920 ng/mL
concentration at 1 day (clinical [4]; Subject C): 1870 ng/mL
concentration at 2 day (clinical [4]; Subject C): 2490 ng/mL
concentration at 3 day (clinical [4]; Subject C): 4540 ng/mL
concentration at 4 day (clinical [4]; Subject C): 2520 ng/mL
concentration at 5 day (clinical [4]; Subject C): 5290 ng/mL
concentration at 6 day (clinical [4]; Subject C): 1040 ng/mL
concentration at 7 day (clinical [4]; Subject C): 1840 ng/mL
concentration at 8 day (clinical [4]; Subject C): 1610 ng/mL
concentration at 3 day (clinical [4]; Subject D): 4900 ng/mL
concentration at 4 day (clinical [4]; Subject D): 4930 ng/mL
concentration at 5 day (clinical [4]; Subject D): 5020 ng/mL
concentration at 6 day (clinical [4]; Subject D): 4400 ng/mL
concentration at 8 day (clinical [4]; Subject D): 4320 ng/mL
Structure (SMILES): O=C1O[C@H]([C@@H](O)CO)C(O)=C1O [Ascorbic Acid]
course of urine levels relative to dosing (clinical [2]): did not differ significantly from baseline levels
course of urine levels relative to dosing [3]: did not differ significantly from baseline levels

concentration at 1 day (clinical [1]): 0 ng/mL
concentration at 2 day (clinical [1]): 0 ng/mL
concentration at 3 day (clinical [1]): 0 ng/mL
concentration at 4 day (clinical [1]): 0 ng/mL
concentration at 5 day (clinical [1]): 5.71 ng/mL
concentration at 6 day (clinical [1]): 0.34 ng/mL
concentration at 7 day (clinical [1]): 0 ng/mL
concentration at 8 day (clinical [1]): 0 ng/mL
Subject C, Urine Results (clinical [2]; 1 day): 0 ng/m
Subject D, Urine Results (clinical [2]; 1 day): 0 ng/m
Subject C, Urine Results (clinical [2]; 2 day): 0 ng/m
Subject D, Urine Results (clinical [2]; 2 day): 0 ng/m
Subject C, Urine Results (clinical [2]; 3 day): 0 ng/m
Subject D, Urine Results (clinical [2]; 3 day): 0 ng/m
Subject C, Urine Results (clinical [2]; 4 day): 0 ng/m
Subject D, Urine Results (clinical [2]; 4 day): 0 ng/m
Subject C, Urine Results (clinical [2]; 5 day): 968 ng/m
Subject D, Urine Results (clinical [2]; 5 day): 3820 ng/m
Subject C, Urine Results (clinical [2]; 6 day): 165 ng/m
Subject D, Urine Results (clinical [2]; 6 day): 260 ng/m
Subject C, Urine Results (clinical [2]; 7 day): 122 ng/m
Subject D, Urine Results (clinical [2]; 7 day): 37.3 ng/m
Subject C, Urine Results (clinical [2]; 8 day): 78.9 ng/m
Subject D, Urine Results (clinical [2]; 8 day): 19.4 ng/m
concentration at 1 day (clinical [2]; Average of Urine Samples): 0 ng/mL
concentration at 2 day (clinical [2]; Average of Urine Samples): 0 ng/mL
concentration at 3 day (clinical [2]; Average of Urine Samples): 0 ng/mL
concentration at 4 day (clinical [2]; Average of Urine Samples): 0 ng/mL
concentration at 5 day (clinical [2]; Average of Urine Samples): 1560 ng/mL
concentration at 6 day (clinical [2]; Average of Urine Samples): 203 ng/mL
concentration at 7 day (clinical [2]; Average of Urine Samples): 64.5 ng/mL
concentration at 8 day (clinical [2]; Average of Urine Samples): 43.2 ng/mL
concentration at 1 day (clinical [2]; Subject A, Urine Results): 0 ng/mL
concentration at 2 day (clinical [2]; Subject A, Urine Results): 0 ng/mL
concentration at 3 day (clinical [2]; Subject A, Urine Results): 0 ng/mL
concentration at 4 day (clinical [2]; Subject A, Urine Results): 0 ng/mL
concentration at 1 day (clinical [2]; Subject B, Urine Results): 0 ng/mL
concentration at 2 day (clinical [2]; Subject B, Urine Results): 0 ng/mL
concentration at 3 day (clinical [2]; Subject B, Urine Results): 0 ng/mL
concentration at 4 day (clinical [2]; Subject B, Urine Results): 0 ng/mL
concentration at 1 day (clinical [4]; Subject A): 0 ng/mL
concentration at 2 day (clinical [4]; Subject A): 0 ng/mL
concentration at 3 day (clinical [4]; Subject A): 0 ng/mL
concentration at 4 day (clinical [4]; Subject A): 0 ng/mL
concentration at 1 day (clinical [4]; Subject B): 0 ng/mL
concentration at 2 day (clinical [4]; Subject B): 0 ng/mL
concentration at 3 day (clinical [4]; Subject B): 0 ng/mL
concentration at 4 day (clinical [4]; Subject B): 0 ng/mL
concentration at 1 day (clinical [4]; Subject C): 0 ng/mL
concentration at 2 day (clinical [4]; Subject C): 0 ng/mL
concentration at 3 day (clinical [4]; Subject C): 0 ng/mL
concentration at 4 day (clinical [4]; Subject C): 0 ng/mL
concentration at 5 day (clinical [4]; Subject C): 3830 ng/mL
concentration at 6 day (clinical [4]; Subject C): 429 ng/mL
concentration at 7 day (clinical [4]; Subject C): 390 ng/mL
concentration at 8 day (clinical [4]; Subject C): 139 ng/mL
concentration at 3 day (clinical [4]; Subject D): 0 ng/mL
concentration at 4 day (clinical [4]; Subject D): 0 ng/mL
concentration at 5 day (clinical [4]; Subject D): 5050 ng/mL
concentration at 6 day (clinical [4]; Subject D): 1670 ng/mL
concentration at 8 day (clinical [4]; Subject D): 27.8 ng/mL
Structure (SMILES): NC(N)=Nc1nc(CSCCC(N)=NS(N)(=O)=O)cs1 [Famotidine]
course of urine levels relative to dosing (clinical [2]): zero before dosing, peaked the day after dosing and slowly decreased over time
course of urine levels relative to dosing [3]: zero before dosing, peaked the day after dosing and slowly decreased over time
